Source: patent publication US10105357B2, “Indication of antibiotic drugs for preparation of cancer inhibition pharmaceutical composition” (LAUNX BIOMEDICAL CO., LTD., priority 2014, dated 2018)
“And” between values parts separate entries of the source, which are not always exact repeats. Equal values may be shown once. Where a name gives a salt, the structure may show the parent alone. Read-outs that look alike come from different tables or passages of the source.

Experiments:
[1] = tested on: SAS (Tongue squamous cell carcinoma); assay: Cell viability analysis, tongue cancer SAS; type: cell-based, human; details: Homo sapiens, 72 h, read-out: The results of antibiotic drug inhibiting cancer cell lines (cell viability analysis), SAS
cancer cell lines = assay: Cell viability analysis (WST-1) on cancer cell lines; type: cell-based, human; details: drug 10 μM, 72 hours, WST-1; Table 3
[2] = tested on: MCF7 (Mammary Gland, Adenocarcinoma); assay: Cell viability analysis, breast cancer MCF7; type: cell-based, human; details: Homo sapiens, MCF7, 72 h
[3] = tested on: HI650 (Lung Adenocarcinoma); assay: Cell viability analysis, lung cancer HI650; type: cell-based, human; details: Homo sapiens, NCI-H1650, 72 h
[4] = tested on: 786-O (Renal adenocarcinoma); assay: Cell viability analysis, renal cancer 786-O; type: cell-based, human; details: Homo sapiens, 786-0, 72 h, read-out: The results of antibiotic drug inhibiting cancer cell lines (cell viability analysis), 786-O
AsPC-1 = assay: Cell viability analysis, pancreatic cancer AsPC-1; type: cell-based, human; details: Homo sapiens, ASPC1, 72 h, read-out: The results of antibiotic drug inhibiting cancer cell lines (cell viability analysis), AsPC-1
U-2OS = assay: Cell viability analysis, osteosarcoma U-2OS; type: cell-based, human; details: Homo sapiens, U2OS, 72 h, read-out: The results of antibiotic drug inhibiting cancer cell lines (cell viability analysis), U2OS
[5] = tested on: AGS (Gastric Adenocarcinoma); assay: Cell viability analysis, gastric cancer AGS; type: cell-based, human; details: Homo sapiens, 72 h
[6] = tested on: MDA-MB-231 (Mammary Gland, Adenocarcinoma); assay: Cell viability analysis, breast cancer MDA-MB-231; type: cell-based, human; details: Homo sapiens, MDA-MB-231, 72 h, read-out: The results of antibiotic drug inhibiting cancer cell lines (cell viability analysis), MDA-MB231
BxPC-3 = assay: Cell viability analysis, pancreatic cancer BxPC-3; type: cell-based, human; details: Homo sapiens, BXPC-3, 72 h, read-out: The results of antibiotic drug inhibiting cancer cell lines (cell viability analysis), BxPC-3
[7] = tested on: A375 (Amelanotic Melanoma); assay: Cell viability analysis, skin cancer A375; type: cell-based, human; details: Homo sapiens, A-375, 72 h
[8] = tested on: Hep3B (hepatocellular carcinoma); assay: Cell viability analysis, hepatic cancer Hep3B; type: cell-based, human; details: Homo sapiens, Hep3B, 72 h, read-out: The results of antibiotic drug inhibiting cancer cell lines (cell viability analysis), Hep3B
[9] = tested on: HeLa (Cervix Adenocarcinoma); assay: Cell viability analysis, cervical cancer HeLa; type: cell-based, human; details: Homo sapiens, HeLa, 72 h
[10] = tested on: A549 (Lung Adenocarcinoma); assay: Cell viability analysis, lung cancer A549; type: cell-based, human; details: Homo sapiens, A549, 72 h
TOV-21G = assay: Cell viability analysis, ovarian cancer TOV-21G; type: cell-based, human; details: Homo sapiens, TOV21G, 72 h, read-out: The results of antibiotic drug inhibiting cancer cell lines (cell viability analysis), TOV-21G
NIH: OVCAR-3 = assay: Cell viability analysis, ovarian cancer NIH: OVCAR-3; type: cell-based, human; details: Homo sapiens, OVCAR-3, 72 h, read-out: The results of antibiotic drug inhibiting cancer cell lines (cell viability analysis), NIH-OVCAR-3
[11] = tested on: PC3 (p53−) (Prostate Adenocarcinoma); assay: Cell viability analysis, prostate cancer PC3; type: cell-based, human; details: Homo sapiens, 72 h
[12] = tested on: MKN-45 (Gastric Adenocarcinoma); assay: Cell viability analysis, gastric cancer MKN-45; type: cell-based, human; details: Homo sapiens, MKN-45, 72 h
T24 = assay: Cell viability analysis, bladder cancer T24; type: cell-based, human; details: Homo sapiens, T-24, 72 h, read-out: The results of antibiotic drug inhibiting cancer cell lines (cell viability analysis), T24
[13] = tested on: HL-60 (Acute Promyelocytic Leukemia); assay: Cell viability analysis, leukemia HL-60; type: cell-based, human; details: Homo sapiens, HL-60, 72 h, read-out: cell viability (survival rate), HL-60, drug 10 μM, 72 hours, WST-1, OD450 nm
[14] = tested on: LoVo (Colorectal Adenocarcinoma); assay: Cell viability analysis, colon cancer LoVo; type: cell-based, human; details: Homo sapiens, LoVo, 72 h
[15] = tested on: BCC (basal cell carcinoma); assay: Cell viability analysis, skin cancer BCC; type: cell-based, human; details: Homo sapiens, 72 h, read-out: The results of antibiotic drug inhibiting cancer cell lines (cell viability analysis), BCC
[16] = tested on: HCT116 (p53+) (Colorectal Carcinoma)
[17] = tested on: TSGH-8301 (Urinary Bladder Carcinoma); assay: Cell viability analysis, bladder cancer TSGH-8301; type: cell-based, human; details: Homo sapiens, 72 h
[18] = read-out: The results of antibiotic drug inhibiting cancer cell lines (cell viability analysis), MCF-7, MCF-7, repeated experiment
[19] = read-out: cell viability (survival rate), MCF7, drug 10 μM, 72 hours, WST-1, OD450 nm
[20] = read-out: The results of antibiotic drug inhibiting cancer cell lines (cell viability analysis), H1650, H1650, repeated experiment
[21] = read-out: cell viability (survival rate), H1650, drug 10 μM, 72 hours, WST-1, OD450 nm
[22] = read-out: The results of antibiotic drug inhibiting cancer cell lines (cell viability analysis), AGS, repeated experiment
[23] = read-out: cell viability (survival rate), AGS, drug 10 μM, 72 hours, WST-1, OD450 nm
[24] = read-out: The results of antibiotic drug inhibiting cancer cell lines (cell viability analysis), A375, A375, repeated experiment
[25] = read-out: cell viability (survival rate), A375, drug 10 μM, 72 hours, WST-1, OD450 nm
[26] = read-out: The results of antibiotic drug inhibiting cancer cell lines (cell viability analysis), HeLa, repeated experiment
[27] = read-out: cell viability (survival rate), HeLa, drug 10 μM, 72 hours, WST-1, OD450 nm
[28] = read-out: The results of antibiotic drug inhibiting cancer cell lines (cell viability analysis), A549, A549, repeated experiment
[29] = read-out: cell viability (survival rate), A549, drug 10 μM, 72 hours, WST-1, OD450 nm
[30] = read-out: The results of antibiotic drug inhibiting cancer cell lines (cell viability analysis), PC-3, PC-3, repeated experiment
[31] = read-out: cell viability (survival rate), PC3, drug 10 μM, 72 hours, WST-1, OD450 nm
[32] = read-out: The results of antibiotic drug inhibiting cancer cell lines (cell viability analysis), MKN-45, MKN-45, repeated experiment
[33] = read-out: cell viability (survival rate), MKN-45, drug 10 μM, 72 hours, WST-1, OD450 nm
[34] = read-out: The results of antibiotic drug inhibiting cancer cell lines (cell viability analysis), LoVo, repeated experiment
[35] = read-out: cell viability (survival rate), LoVo, drug 10 μM, 72 hours, WST-1, OD450 nm
[36] = read-out: The results of antibiotic drug inhibiting cancer cell lines (cell viability analysis), TSGH-8301, TSGH-8301, repeated experiment
[37] = read-out: cell viability (survival rate), TSGH, drug 10 μM, 72 hours, WST-1, OD450 nm

How did the viability at 10 µM [1] turn out when `COc1cc(NC(C)CCCN)c2ncccc2c1` (centres unmarked) [Primaquine Diphosphate] was run?
The viability at 10 µM was 59.9%.

And the “inhibition effect on different cancer cell lines” value (cancer cell lines)?
The value was “significant inhibition effect”.

And the viability at 10 µM [2, 18]?
Its viability at 10 µM is 50.7%.

What about the viability at 10 µM [2, 19] of the same compound?
Its viability at 10 µM is 36.7%.

And the viability at 10 µM [3, 20]?
The viability at 10 µM was 66.8%.

And the viability at 10 µM [3, 21]?
The viability at 10 µM was 56.4%.

What about the viability at 10 µM [4] of the same compound?
Its viability at 10 µM is 81.5%.

What about the viability at 10 µM (AsPC-1) of the same compound?
The viability at 10 µM was 66.5%.

And the viability at 10 µM (U-2OS)?
Its viability at 10 µM is 59.6%.

What about the viability at 10 µM [5, 22] of the same compound?
The viability at 10 µM was 37.1%.

And the viability at 10 µM [5, 23]?
Its viability at 10 µM is 43.9%.

What about the viability at 10 µM [6] of the same compound?
The viability at 10 µM was 65.4%.

What about the viability at 10 µM (BxPC-3) of the same compound?
The viability at 10 µM was 49.8%.

And the viability at 10 µM [7, 24]?
The viability at 10 µM was 38.7%.

What about the viability at 10 µM [7, 25] of the same compound?
The viability at 10 µM was 44.6%.

What about the viability at 10 µM [8] of the same compound?
The viability at 10 µM was 115%.

And the viability at 10 µM [9, 26]?
The viability at 10 µM was 61.2%.

And the viability at 10 µM [9, 27]?
Its viability at 10 µM is 55%.

What about the viability at 10 µM [10, 28] of the same compound?
Its viability at 10 µM is 47.4%.

What about the viability at 10 µM [10, 29] of the same compound?
The viability at 10 µM was 31.4%.

What about the viability at 10 µM (TOV-21G) of the same compound?
Its viability at 10 µM is 54.8%.

What about the viability at 10 µM (NIH: OVCAR-3) of the same compound?
The viability at 10 µM was 60.2%.

What about the viability at 10 µM [11, 30] of the same compound?
Its viability at 10 µM is 65.7%.

And the viability at 10 µM [11, 31]?
Its viability at 10 µM is 60.3%.

What about the viability at 10 µM [12, 32] of the same compound?
Its viability at 10 µM is 63.1%.

And the viability at 10 µM [12, 33]?
The viability at 10 µM was 64.3%.

And the viability at 10 µM (T24)?
Its viability at 10 µM is 72.6%.

And the viability at 10 µM [13]?
The viability at 10 µM was 34.1%.

What about the viability at 10 µM [14, 34] of the same compound?
The viability at 10 µM was 81.2%.

What about the viability at 10 µM [14, 35] of the same compound?
Its viability at 10 µM is 72.6%.

And the viability at 10 µM [15]?
Its viability at 10 µM is 35.9%.

What about the viability [16] of the same compound?
The viability was 60.9%.

What about the viability at 10 µM [17, 36] of the same compound?
Its viability at 10 µM is 51.5%.

And the viability at 10 µM [17, 37]?
Its viability at 10 µM is 55.5%.

Which viability at 10 µM [1] does the source give for `CN(C)[C@@H]1C(O)=C(C(N)=O)C(=O)[C@@]2(O)C(O)=C3C(=O)c4c(O)cccc4[C@@](C)(O)[C@H]3C[C@@H]12` [Tetracycline HCl] here?
Its viability at 10 µM is 79.2%.

And the “inhibition effect on different cancer cell lines” value (cancer cell lines)?
The value was “significant inhibition effect”.

What about the viability at 10 µM [2, 18] of the same compound?
Its viability at 10 µM is 93.1%.

What about the viability at 10 µM [2, 19] of the same compound?
The viability at 10 µM was 75.9%.

And the viability at 10 µM [3, 20]?
Its viability at 10 µM is 87.1%.

And the viability at 10 µM [3, 21]?
Its viability at 10 µM is 41.1%.

What about the viability at 10 µM [4] of the same compound?
The viability at 10 µM was 99.9%.

And the viability at 10 µM (AsPC-1)?
Its viability at 10 µM is 96.7%.

What about the viability at 10 µM (U-2OS) of the same compound?
Its viability at 10 µM is 53.3%.

What about the viability at 10 µM [5, 22] of the same compound?
Its viability at 10 µM is 94%.

What about the viability at 10 µM [5, 23] of the same compound?
The viability at 10 µM was 88.2%.

What about the viability at 10 µM [6] of the same compound?
The viability at 10 µM was 88.1%.

And the viability at 10 µM (BxPC-3)?
The viability at 10 µM was 77.7%.

What about the viability at 10 µM [7, 24] of the same compound?
Its viability at 10 µM is 82.8%.

And the viability at 10 µM [7, 25]?
The viability at 10 µM was 74.1%.

What about the viability at 10 µM [8] of the same compound?
Its viability at 10 µM is 92.2%.

And the viability at 10 µM [9, 26]?
Its viability at 10 µM is 79%.

And the viability at 10 µM [9, 27]?
The viability at 10 µM was 96.1%.

And the viability at 10 µM [10, 28]?
The viability at 10 µM was 99.7%.

And the viability at 10 µM [10, 29]?
The viability at 10 µM was 72.8%.

What about the viability at 10 µM (TOV-21G) of the same compound?
Its viability at 10 µM is 81.9%.

What about the viability at 10 µM (NIH: OVCAR-3) of the same compound?
Its viability at 10 µM is 104%.

And the viability at 10 µM [11, 30]?
The viability at 10 µM was 104%.

And the viability at 10 µM [11, 31]?
The viability at 10 µM was 42.9%.

And the viability at 10 µM [12, 32]?
Its viability at 10 µM is 133%.

What about the viability at 10 µM [12, 33] of the same compound?
Its viability at 10 µM is 55.9%.

And the viability at 10 µM (T24)?
The viability at 10 µM was 130%.

What about the viability at 10 µM [13] of the same compound?
Its viability at 10 µM is 93.7%.

And the viability at 10 µM [14, 34]?
Its viability at 10 µM is 92%.

And the viability at 10 µM [14, 35]?
Its viability at 10 µM is 71.8%.

And the viability at 10 µM [15]?
Its viability at 10 µM is 100%.

And the viability [16]?
The viability was 115% and 114%.

And the viability at 10 µM [17, 36]?
The viability at 10 µM was 103%.

What about the viability at 10 µM [17, 37] of the same compound?
Its viability at 10 µM is 34.1%.
